Test results reported in patent publication US9884806B2, “Cyclic vinylogous amides as bromodomain inhibitors” (ICAHN SCHOOL OF MEDICINE AT MOUNT SINAI, priority 2013, dated 2018).

What was measured:
BRD4_2 = molecular target: T1, BRD4_2 (Homo sapiens, UniProt O60885); assay: Fluorescence anisotropy binding assay (competition with FITC-labeled MS417 probe), BRD4_2; conditions: FITC-MS417 probe 80 nM, PBS pH 7.4, 1 hour, 25° C.
T1 construct: contains two tandem bromodomains (BrD1 and BrD2)

[1] = molecular target: T2, first bromodomain (BrD1) of human BRD4 (Homo sapiens, UniProt O60885); assay: Fluorescence anisotropy binding assay (competition with FITC-labeled MS417 probe); conditions: FITC-MS417 probe 80 nM, PBS pH 7.4, 1 hour, 25° C., read-out: BRD4_1 IC50
T2 construct: the first bromodomain (BrD1) of human BRD4; poly-His (cleaved yes); made in house
Method in brief: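 Competitive fluorescence anisotropy in PBS pH 7.4: 80 nM FITC-MS417 probe, 0.25 to 1 μM tag-cleaved BrD1, titrated unlabeled ligand, 1 hour at 25° C. IC50 values were fitted and converted to Ki using a corrected Cheng-Prusoff equation assuming one-site competition.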

| Compound | melting point | IC50 (BRD4_2) | IC50 [1] |
| --- | --- | --- | --- |
| CC1=C(Nc2cccc(Br)c2)CCC1=O | 291 to 294 °C |  |  |
| CC1=C(Nc2cc(Cl)c(C(=O)O)cc2Cl)CCC1=O | 229 to 232 °C |  |  |
| CC1=C(Nc2cc(C(=O)O)ccc2C(F)(F)F)CCCC1=O | 209 to 212 °C |  |  |
| CC1=C(NC2(C(F)(F)F)C=CC(C(=O)O)=CC2)CCCC1=O (stereo not drawn) | 229 to 231 °C |  |  |
| CC1=C(Nc2ccc(S(N)(=O)=O)cc2)CCC1=O (hydrate or solvate) [Example 01-06, 4-((2-methyl-3-oxocyclopent-1-en-1-yl)amino)benzenesulfonamide] | 245 to 247 °C |  |  |
| CC1=C(Nc2ccc(C#N)cc2)CCC1=O (hydrate or solvate) [Example 01-07, 4-((2-methyl-3-oxocyclopent-1-en-1-yl)amino)benzonitrile] | 204 to 206 °C |  |  |
| CC1=C(Nc2ccc(S(=O)(=O)Nc3ccccn3)cc2)CCC1=O (hydrate or solvate) [Example 01-31, 4-((2-methyl-3-oxocyclopent-1-en-1-yl)amino)-N-(pyridin-2-yl)benzenesulfonamide] | 230 to 233 °C |  |  |
| CC1=C(Nc2cccc(S(N)(=O)=O)c2)CCC1=O (hydrate or solvate) [Example 01-45, 3((2-methyl-3-oxocyclopent-1-en-1-yl)amino)benzenesulfonamide] | 223 to 225 °C |  |  |
| CC1=C(Nc2cc(S(N)(=O)=O)ccc2Cl)CCC1=O (hydrate or solvate) [Example 01-46, 4-chloro-3-((2-methyl-3-oxocyclopent-1-en-1-yl)amino)benzene-sulfonamide] | 223 to 225 °C |  |  |
| CC1=C(Nc2ccc(C(=O)O)c(Cl)c2)CCC1=O [Example 01-10, 2-chloro-4((2-methyl-3-oxocyclopent-1-en-1-yl)amino)benzoic acid] | 239 to 241 °C | > 10 µM | > 10 µM |
| CC1=C(Nc2ccccc2C(N)=O)CCC1=O [Example 01-18, 2-((2-methyl-3-oxocyclopent-1-en-1-yl)amino)benzamide] | 235 to 238 °C | > 10 µM | > 10 µM |
| CC1=C(Nc2ccc(CC(=O)O)cc2)CCCC1=O [Example 01-38, 2-(4((2-methyl-3-oxocyclohex-1-en-1-yl)amino)phenyl)acetic acid] | 215 to 219 °C |  |  |
| CC(=O)Nc1ccc(Cl)c(NC2=C(C)C(=O)CCC2)c1 [Example 01-47, N-(4-chloro-3-((2-methyl-3-oxocyclohex-1-en-1-yl)amino)phenyl)-acetamide] | 234 to 236 °C |  |  |
| CC1=C(Nc2ccc(Cl)cc2C(=O)O)CCC1=O [Example 02-05, 5-chloro-2-((2-methyl-3-oxocyclopent-1-en-1-yl)amino)benzoic acid] | 242 to 245 °C |  |  |
| CC1=C(Nc2cccc(Nc3ccccc3C)c2Cl)CCCC1=O [Example 05-80, 3-((2-chloro-3-(o-tolylamino)phenyl)amino)-2-methylcyclohex-2-enone] |  | 1 to 10 µM | < 1 µM |
| CC1=C(Nc2cccc(NC(=O)/C=C\C(=O)O)c2Cl)CCCC1=O [Example 05-85, (Z)-4-((2-chloro-3-((2-methyl-3-oxocyclohex-1-en-1-yl)amino)phenyl)-amino)-4-oxobut-2-enoic acid] |  | > 10 µM | < 1 µM |
| CC1=C(Nc2cccc(-c3cn(Cc4ccccc4C)nn3)c2)CCC1=O [Example 06-10, 2-methyl-3-((3-(1-(2-methylbenzyl)-1H-1,2,3-triazol-4-yl)phenyl)amino)cyclopent-2-enone] |  | 1 to 10 µM | < 1 µM |
| COc1ccc(Cn2cc(-c3cccc(NC4=C(C)C(=O)CC4)c3)nn2)cc1 [Example 06-15, 3-((3-(1-(4-methoxybenzyl)-1H-1,2,3-triazol-4-yl)phenyl)amino)-2-methylcyclopent-2-enone] |  | 1 to 10 µM | < 1 µM |
| CC1=C(Nc2ccc(-c3cn(Cc4ccccc4)nn3)cc2)CCC1=O [Example 06-28] |  | 1 to 10 µM | < 1 µM |
| COC(=O)c1ccc(Br)c(NC2=C(C)C(=O)CCC2)c1 [Examples 02-9] |  | > 10 µM | > 10 µM |
| C#Cc1cccc(NC2=C(C)C(=O)CC2)c1 [Examples 06-1] |  | > 10 µM | 1 to 10 µM |
| CC1=C(Nc2cccc(-c3cn(-c4ccccc4)nn3)c2)CCC1=O [Examples 06-2, 2-methyl-3-((3-(1-phenyl-1H-1,2,3-triazol-4-yl)phenyl)amino)cyclopent-2-enone] |  | 1 to 10 µM | 1 to 10 µM |
| CC1=C(Nc2cccc(-c3cn(Cc4ccccc4F)nn3)c2)CCC1=O [Examples 06-8] |  | 1 to 10 µM | < 1 µM |

Next, values leading:

| melting point | IC50 (BRD4_2) | IC50 [1] | Compound |
| --- | --- | --- | --- |
| 220 to 223 °C |  |  | COc1c(NC2=C(C)C(=O)CC2)cccc1C(=O)O |
| 189 to 191 °C |  |  | CC1=C(NC2CCN(C(=O)OC(C)(C)C)CC2)CCC1=O (hydrate or solvate) [Example 01-32, tert-Butyl 4-((2-methyl-3-oxocyclopent-1-en-1-yl)amino)piperidine-1-carboxylate] |
| 236 to 238 °C |  |  | CC1=C(N[C@H]2CC[C@H](C(=O)O)CC2)CCC1=O (hydrate or solvate) [Example 01-33, trans-(1R,4R)-4-((2-methyl-3-oxocyclopent-1-en-1-yl)amino)cyclo6hexane-carboxylic acid] |
| 233 to 235 °C |  |  | CC1=C(N[C@H]2CC[C@@H](C(=O)O)CC2)CCC1=O (hydrate or solvate) [Example 01-34, cis-(1S,4S)-4-((2-methyl-3-oxocyclopent-1-en-1-yl)amino)cyclohexanecarboxylic acid] |
| 236 to 238 °C |  |  | CC1=C(Nc2cccc(C(=O)O)c2)CCC1=O [Example 01-03, 3((2-methyl-3-oxocyclopent-1-en-1-yl)amino)benzoic acid] |
| 133 to 135 °C |  |  | COC(=O)c1cccc(NC2=C(C)C(=O)CC2)c1 [Example 01-04, methyl 3-((2-methyl-3-oxocyclopent-1-en-1-yl)amino)benzoate] |
| 270 to 273 °C |  |  | CC(=O)c1ccc(NC2=C(C)C(=O)CC2)cc1 [Example 01-09, 3-((4-acetylphenyl)amino)-2-methylcyclopent-2-enone] |
| 231 to 234 °C | 1 to 10 µM | 1 to 10 µM | COc1cc(C(=O)O)ccc1NC1=C(C)C(=O)CC1 [Example 01-12, 3-methoxy-4-((2-methyl-3-oxocyclopent-1-en-1-yl)amino)benzoic acid] |
| 193 to 196 °C | 1 to 10 µM | 1 to 10 µM | COC(=O)c1ccc(NC2=C(C)C(=O)CC2)cc1OC [Example 01-13, methyl 2-methoxy-4-((2-methyl-3-oxocyclopent-1-en-1-yl)amino)benzoate] |
| 233 to 236 °C | 1 to 10 µM | 1 to 10 µM | CC1=C(Nc2ccc(C(=O)O)cc2C)CCC1=O [Example 01-14, 3-methyl-4-((2-methyl-3-oxocyclopent-1-en-1-yl)amino)benzoic acid] |
| 213 to 216 °C | > 10 µM | > 10 µM | CC1=C(Nc2ccc(C(=O)O)c(C)c2)CCC1=O [Example 01-16, 2-methyl-4-((2-methyl-3-oxocyclopent-1-en-1-yl)amino)benzoic acid] |
| 228 to 230 °C |  |  | CC1=C(Nc2ccc(C(=O)O)cc2)CCC1=O [Example 02-01, 4((2-methyl-3-oxocyclopent-1-en-1-yl)amino)benzoic acid] |
| 226 to 230 °C |  |  | CC1=C(Nc2ccc(C(=O)O)cc2Cl)CCC1=O [Example 02-02, 3-chloro-4((2-methyl-3-oxocyclopent-1-en-1-yl)amino)benzoic acid] |
| 240 to 243 °C |  |  | COc1cc(NC2=C(C)C(=O)CC2)ccc1C(=O)O [Example 02-03, 2-methoxy-4((2-methyl-3-oxocyclopent-1-en-1-yl)amino)benzoic acid] |
| 245 to 248 °C |  |  | CC1=C(Nc2ccccc2C(=O)O)CCC1=O [Example 02-04, 2-((2-methyl-3-oxocyclopent-1-en-1-yl)amino)benzoic acid] |
| 210 to 213 °C |  |  | CC1=C(Nc2ccc(C(=O)O)cc2F)CCC1=O [Example 02-06, 3-fluoro-4((2-methyl-3-oxocyclopent-1-en-1-yl)amino)benzoic acid] |
| 246 to 248 °C |  |  | CC1=C(Nc2ccc(C(=O)O)cc2Br)CCC1=O [Example 02-07, 3-bromo-4-((2-methyl-3-oxocyclopent-1-en-1-yl)amino)benzoic acid] |
| 263 to 264 °C |  |  | CC1=C(Nc2ccc(C(=O)O)cc2I)CCC1=O [Example 02-08, 3-iodo-4-((2-methyl-3-oxocyclopent-1-en-1-yl)amino)benzoic acid] |
|  | > 10 µM | 1 to 10 µM | CC1=C(Nc2ccc(C(=O)O)cc2)CCC1=O [Examples 02-1] |
|  | 1 to 10 µM | 1 to 10 µM | CC1=C(Nc2ccc(C(=O)O)cc2Cl)CCC1=O [Examples 02-2] |
|  | > 10 µM | > 10 µM | COc1cc(NC2=C(C)C(=O)CC2)ccc1C(=O)O [Examples 02-3] |
|  | > 10 µM | > 10 µM | CC1=C(Nc2ccccc2C(=O)O)CCC1=O [Examples 02-4] |
|  | > 10 µM | > 10 µM | CC1=C(Nc2ccc(Cl)cc2C(=O)O)CCC1=O [Examples 02-5] |
|  | > 10 µM | 1 to 10 µM | CC1=C(Nc2ccc(C(=O)O)cc2F)CCC1=O [Examples 02-6] |
|  | > 10 µM | 1 to 10 µM | CC1=C(Nc2ccc(C(=O)O)cc2Br)CCC1=O [Examples 02-7] |
|  | 1 to 10 µM | 1 to 10 µM | CC1=C(Nc2ccc(C(=O)O)cc2I)CCC1=O [Examples 02-8] |
